# Experimental data published in PMC5448077, “Development of an orally available inhibitor of CLK1 for skipping a mutated dystrophin exon in Duchenne muscular dystrophy” (Scientific Reports, 2017).
# How the values were obtained:
# [1] = biological target: T1, CDC2-like kinase 1 (CLK1) (Homo sapiens, UniProt P49759); design: recombinant GST-tagged human CLK1; details: 1 µM; inhibitor
# Method: These assays rely on the phosphorylation of small synthetic peptides developed for each kinase, and detect activity by changes in electrophoretic mobility (MSA assay) or by binding of a fluorescently labelled peptide to a large micro-particle and concomitant polarization increases (IMAP assay). […] Inhibitor (4×), substrate/ATP-Metal (4×), and kinase (2×) solutions were prepared with assay buffer (20 mM HEPES, 0.01% Triton X-100, 2 mM DTT, pH 7.5) and mixed in 384-well plates at room temperature for 1 or 5 h depending on the kinase. Reactions were stopped by the addition of termination buffer (QuickScout Screening Assist MSA; Carna Biosciences). The entire reaction mixture was then applied to a LabChip system (Perkin-Elmer, Waltham, MA, USA) and the product and substrate peptide peaks were separated and quantified, and then heights of product (P) and substrate (S) peptide peaks were calculated. The level of kinase activity was evaluated with the following equation: activity = P/(P + S).
# [2] = biological target: T1, CDC2-like kinase 1 (CLK1); experiment: biochemical
# [3] = biological target: EGFR(L858R) (Homo sapiens, UniProt P00533, L858R); experiment: biochemical
# Method: (§1) These assays rely on the phosphorylation of small synthetic peptides developed for each kinase, and detect activity by changes in electrophoretic mobility (MSA assay) or by binding of a fluorescently labelled peptide to a large micro-particle and concomitant polarization increases (IMAP assay). Reaction conditions for each kinase are described in Supplementary Table S5. All kinase assays were carried out at Carna Biosciences (Kobe, Japan). The inhibitory map was constructed using Kinome Render[41]. Inhibitor (4×), substrate/ATP-Metal (4×), and kinase (2×) solutions were prepared with assay buffer (20 mM HEPES, 0.01% Triton X-100, 2 mM DTT, pH 7.5) and mixed in 384-well plates at room temperature for 1 or 5 h depending on the kinase. Reactions were stopped by the addition of termination buffer (QuickScout Screening Assist MSA; Carna Biosciences). The entire reaction mixture was then applied to a LabChip system (Perkin-Elmer, Waltham, MA, USA) and the product and substrate peptide peaks were separated and quantified, and then heights of product (P) and substrate (S) peptide peaks were calculated. The level of kinase activity was evaluated with the following equation: activity = P/(P + S).
# [4] = biological target: RET(M918T) (Homo sapiens, UniProt P07949, M918T); experiment: biochemical
# Method: as §1
# [5] = biological target: T2, GSK3α (Homo sapiens, UniProt P49840); experiment: biochemical
# T2 construct: gene GSK3A
# Method: as §1
# [6] = biological target: PIM3 (Homo sapiens, UniProt Q86V86); experiment: biochemical
# Method: as §1
# [7] = biological target: HIPK4 (Homo sapiens, UniProt Q8NE63); experiment: biochemical
# Method: as §1
# [8] = biological target: LCK (Homo sapiens, UniProt P06239); experiment: biochemical
# Method: as §1
# [9] = biological target: EGFR(T790M) (Homo sapiens, UniProt P00533, T790M); experiment: biochemical
# Method: as §1
# [10] = biological target: T3, RON (Homo sapiens, UniProt Q04912); experiment: biochemical
# T3 construct: gene MST1R
# Method: as §1
# [11] = biological target: T4, CK1α (Homo sapiens, UniProt P48729); experiment: biochemical
# T4 construct: gene CSNK1A1
# Method: as §1
# [12] = biological target: T5, QIK (Homo sapiens, UniProt Q9H0K1); experiment: biochemical
# T5 construct: gene SIK2
# Method: as §1
# [13] = biological target: ALK(F1174L) (Homo sapiens, UniProt Q9UM73, F1174L); experiment: biochemical
# Method: as §1
# [14] = biological target: WNK1 (Homo sapiens, UniProt Q9H4A3); experiment: biochemical
# Method: as §1
# [15] = biological target: SRPK1 (Homo sapiens, UniProt Q96SB4); experiment: biochemical
# Method: as §1
# [16] = biological target: T6, p38α (Homo sapiens, UniProt Q16539); experiment: biochemical
# T6 construct: gene MAPK14
# Method: as §1
# [17] = biological target: WNK3 (Homo sapiens, UniProt Q9BYP7); experiment: biochemical
# Method: as §1
# [18] = biological target: BTK (Homo sapiens, UniProt Q06187); experiment: biochemical
# Method: as §1
# [19] = biological target: TYRO3 (Homo sapiens, UniProt Q06418); experiment: biochemical
# Method: as §1
# [20] = biological target: T7, TIE2 (Homo sapiens, UniProt Q02763); experiment: biochemical
# T7 construct: gene TEK
# Method: as §1
# [21] = biological target: KIT(D816Y) (Homo sapiens, UniProt P10721, D816Y); experiment: biochemical
# Method: as §1
# [22] = biological target: T8, ACK (Homo sapiens, UniProt Q07912); experiment: biochemical
# T8 construct: gene TNK2
# Method: as §1
# [23] = biological target: KIT(D816V) (Homo sapiens, UniProt P10721, D816V); experiment: biochemical
# Method: as §1
# [24] = biological target: T9, PKD2 (Homo sapiens, UniProt Q9BZL6); experiment: biochemical
# T9 construct: gene PRKD2
# Method: as §1
# [25] = biological target: T10, YES (Homo sapiens, UniProt P07947); experiment: biochemical
# T10 construct: gene YES1
# Method: as §1
# [26] = biological target: T11, NDR1 (Homo sapiens, UniProt Q15208); experiment: biochemical
# T11 construct: gene STK38
# Method: as §1
# [27] = biological target: SYK (Homo sapiens, UniProt P43405); experiment: biochemical
# Method: as §1
# [28] = biological target: IRAK4 (Homo sapiens, UniProt Q9NWZ3); experiment: biochemical
# Method: as §1
# [29] = biological target: RET(S891A) (Homo sapiens, UniProt P07949, S891A); experiment: biochemical
# Method: as §1
# [30] = biological target: FGFR3(K650E) (Homo sapiens, UniProt P22607, K650E); experiment: biochemical
# Method: as §1
# T1 sequence (P49759 whole entry): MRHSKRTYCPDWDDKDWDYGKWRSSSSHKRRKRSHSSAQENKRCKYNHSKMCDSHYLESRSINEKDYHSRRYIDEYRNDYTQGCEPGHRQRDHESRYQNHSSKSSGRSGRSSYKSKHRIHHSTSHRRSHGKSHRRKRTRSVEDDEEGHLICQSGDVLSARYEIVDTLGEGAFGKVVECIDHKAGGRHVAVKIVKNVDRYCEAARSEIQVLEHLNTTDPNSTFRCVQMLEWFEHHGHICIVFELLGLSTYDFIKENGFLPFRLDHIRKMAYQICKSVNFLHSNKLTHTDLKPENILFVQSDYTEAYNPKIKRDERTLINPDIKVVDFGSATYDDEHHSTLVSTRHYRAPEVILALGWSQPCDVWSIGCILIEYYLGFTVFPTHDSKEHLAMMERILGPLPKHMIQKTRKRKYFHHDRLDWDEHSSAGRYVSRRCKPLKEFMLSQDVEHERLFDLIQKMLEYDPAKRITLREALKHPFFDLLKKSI
# T7 sequence (Q02763 whole entry): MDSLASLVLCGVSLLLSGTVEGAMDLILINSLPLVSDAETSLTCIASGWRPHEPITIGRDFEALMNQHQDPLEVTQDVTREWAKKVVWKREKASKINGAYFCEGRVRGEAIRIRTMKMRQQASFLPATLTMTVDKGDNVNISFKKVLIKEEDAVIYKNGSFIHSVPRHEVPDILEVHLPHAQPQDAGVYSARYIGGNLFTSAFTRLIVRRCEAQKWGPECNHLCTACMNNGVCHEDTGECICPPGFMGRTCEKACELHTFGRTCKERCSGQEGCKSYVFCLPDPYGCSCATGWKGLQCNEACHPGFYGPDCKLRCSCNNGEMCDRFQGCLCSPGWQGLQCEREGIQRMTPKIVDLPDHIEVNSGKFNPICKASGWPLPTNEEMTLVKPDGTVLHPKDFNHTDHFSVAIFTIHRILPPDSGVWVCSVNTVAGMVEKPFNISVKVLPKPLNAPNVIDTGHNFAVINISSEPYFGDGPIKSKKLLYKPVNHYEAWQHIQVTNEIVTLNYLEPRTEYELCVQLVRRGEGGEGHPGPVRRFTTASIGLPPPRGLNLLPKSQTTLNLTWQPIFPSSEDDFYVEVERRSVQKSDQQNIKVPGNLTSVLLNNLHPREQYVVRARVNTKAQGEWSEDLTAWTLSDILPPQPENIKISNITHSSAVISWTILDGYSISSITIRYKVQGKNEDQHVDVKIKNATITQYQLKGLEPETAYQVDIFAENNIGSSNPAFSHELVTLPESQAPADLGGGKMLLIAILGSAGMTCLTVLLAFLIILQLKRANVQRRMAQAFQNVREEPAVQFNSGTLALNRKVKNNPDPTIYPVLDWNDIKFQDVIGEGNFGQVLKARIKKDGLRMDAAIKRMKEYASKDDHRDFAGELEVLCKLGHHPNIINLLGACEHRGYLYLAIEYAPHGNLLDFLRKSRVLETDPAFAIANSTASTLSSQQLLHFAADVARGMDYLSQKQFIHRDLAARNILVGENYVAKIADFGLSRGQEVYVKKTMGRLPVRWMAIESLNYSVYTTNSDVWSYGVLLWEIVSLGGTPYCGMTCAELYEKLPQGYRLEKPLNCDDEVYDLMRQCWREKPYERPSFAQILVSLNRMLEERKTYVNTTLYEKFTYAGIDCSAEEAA
# Sequence of KIT(D816V) (P10721 whole entry D816V): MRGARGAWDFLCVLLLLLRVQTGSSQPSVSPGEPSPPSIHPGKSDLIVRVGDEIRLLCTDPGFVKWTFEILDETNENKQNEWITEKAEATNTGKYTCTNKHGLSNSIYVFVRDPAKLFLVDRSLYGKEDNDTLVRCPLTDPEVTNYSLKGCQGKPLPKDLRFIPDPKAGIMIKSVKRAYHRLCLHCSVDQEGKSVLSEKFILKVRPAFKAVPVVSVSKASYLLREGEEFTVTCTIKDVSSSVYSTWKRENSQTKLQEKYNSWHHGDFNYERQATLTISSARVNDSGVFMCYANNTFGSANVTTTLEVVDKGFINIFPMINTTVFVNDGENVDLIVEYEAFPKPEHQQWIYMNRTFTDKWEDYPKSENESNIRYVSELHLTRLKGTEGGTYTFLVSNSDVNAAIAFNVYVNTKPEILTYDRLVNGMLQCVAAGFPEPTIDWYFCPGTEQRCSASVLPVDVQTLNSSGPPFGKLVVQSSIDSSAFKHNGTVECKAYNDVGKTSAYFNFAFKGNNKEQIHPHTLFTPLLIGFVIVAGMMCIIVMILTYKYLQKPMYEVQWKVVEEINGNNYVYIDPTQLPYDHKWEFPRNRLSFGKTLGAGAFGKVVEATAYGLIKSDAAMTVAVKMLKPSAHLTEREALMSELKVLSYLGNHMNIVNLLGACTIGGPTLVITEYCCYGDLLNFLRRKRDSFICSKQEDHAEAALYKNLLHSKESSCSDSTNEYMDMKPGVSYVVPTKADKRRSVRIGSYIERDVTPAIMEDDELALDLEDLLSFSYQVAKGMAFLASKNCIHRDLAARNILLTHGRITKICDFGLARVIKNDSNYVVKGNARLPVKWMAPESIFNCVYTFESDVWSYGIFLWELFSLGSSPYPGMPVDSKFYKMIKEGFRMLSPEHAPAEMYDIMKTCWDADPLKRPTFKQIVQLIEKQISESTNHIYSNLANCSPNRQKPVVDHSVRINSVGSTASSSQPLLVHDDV
# T11 sequence (Q15208 whole entry): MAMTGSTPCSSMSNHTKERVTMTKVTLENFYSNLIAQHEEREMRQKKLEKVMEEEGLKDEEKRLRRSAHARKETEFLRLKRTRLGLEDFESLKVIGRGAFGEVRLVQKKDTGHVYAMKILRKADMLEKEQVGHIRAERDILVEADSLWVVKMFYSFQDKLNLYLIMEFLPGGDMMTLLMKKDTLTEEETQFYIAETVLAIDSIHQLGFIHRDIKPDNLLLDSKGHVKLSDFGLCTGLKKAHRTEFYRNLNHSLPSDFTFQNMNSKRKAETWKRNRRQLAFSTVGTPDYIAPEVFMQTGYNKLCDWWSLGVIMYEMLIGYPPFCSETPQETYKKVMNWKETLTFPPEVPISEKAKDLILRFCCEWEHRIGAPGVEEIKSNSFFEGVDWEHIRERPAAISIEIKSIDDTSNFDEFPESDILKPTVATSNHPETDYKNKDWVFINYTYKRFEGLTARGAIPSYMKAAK
# T6 sequence (Q16539 whole entry): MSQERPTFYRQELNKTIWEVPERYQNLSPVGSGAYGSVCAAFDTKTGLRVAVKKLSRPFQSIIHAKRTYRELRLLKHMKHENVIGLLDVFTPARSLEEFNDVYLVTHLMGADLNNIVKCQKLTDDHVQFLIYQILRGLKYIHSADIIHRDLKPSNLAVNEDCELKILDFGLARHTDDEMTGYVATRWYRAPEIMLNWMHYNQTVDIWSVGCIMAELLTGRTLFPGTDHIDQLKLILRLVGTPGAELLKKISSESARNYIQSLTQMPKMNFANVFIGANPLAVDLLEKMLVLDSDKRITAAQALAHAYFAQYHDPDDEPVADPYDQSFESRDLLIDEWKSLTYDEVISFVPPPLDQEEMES
# Sequence of LCK (P06239 whole entry): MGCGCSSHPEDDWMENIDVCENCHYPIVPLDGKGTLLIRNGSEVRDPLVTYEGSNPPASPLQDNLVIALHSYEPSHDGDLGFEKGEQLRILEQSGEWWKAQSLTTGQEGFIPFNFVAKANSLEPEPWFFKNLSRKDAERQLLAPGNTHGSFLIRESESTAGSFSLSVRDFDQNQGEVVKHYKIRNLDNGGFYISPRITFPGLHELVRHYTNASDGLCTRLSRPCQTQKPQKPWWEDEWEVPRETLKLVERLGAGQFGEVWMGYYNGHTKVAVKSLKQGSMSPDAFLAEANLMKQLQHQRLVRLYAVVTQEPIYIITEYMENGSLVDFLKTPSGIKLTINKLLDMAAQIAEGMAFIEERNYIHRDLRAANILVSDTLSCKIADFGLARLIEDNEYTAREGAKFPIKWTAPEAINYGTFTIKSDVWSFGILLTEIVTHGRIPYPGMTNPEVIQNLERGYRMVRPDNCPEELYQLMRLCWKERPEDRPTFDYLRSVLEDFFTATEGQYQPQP
# Sequence of SRPK1 (Q96SB4 whole entry): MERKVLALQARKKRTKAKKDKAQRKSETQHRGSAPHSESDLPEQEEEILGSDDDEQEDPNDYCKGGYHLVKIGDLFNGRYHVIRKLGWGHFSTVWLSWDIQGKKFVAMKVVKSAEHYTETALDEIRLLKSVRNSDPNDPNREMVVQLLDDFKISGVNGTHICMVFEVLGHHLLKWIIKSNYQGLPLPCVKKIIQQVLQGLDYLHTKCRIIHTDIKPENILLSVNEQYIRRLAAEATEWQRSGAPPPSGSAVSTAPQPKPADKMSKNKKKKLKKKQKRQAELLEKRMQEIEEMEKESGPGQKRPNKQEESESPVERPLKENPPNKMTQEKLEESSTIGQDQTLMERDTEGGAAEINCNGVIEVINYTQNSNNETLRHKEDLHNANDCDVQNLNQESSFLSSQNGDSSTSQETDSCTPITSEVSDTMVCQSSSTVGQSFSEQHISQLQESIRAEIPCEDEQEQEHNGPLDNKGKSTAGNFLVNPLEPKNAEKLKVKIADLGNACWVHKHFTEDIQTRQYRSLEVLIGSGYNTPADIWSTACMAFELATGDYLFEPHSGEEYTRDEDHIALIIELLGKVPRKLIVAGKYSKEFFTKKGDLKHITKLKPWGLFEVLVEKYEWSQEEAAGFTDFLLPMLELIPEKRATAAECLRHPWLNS
# Sequence of IRAK4 (Q9NWZ3 whole entry): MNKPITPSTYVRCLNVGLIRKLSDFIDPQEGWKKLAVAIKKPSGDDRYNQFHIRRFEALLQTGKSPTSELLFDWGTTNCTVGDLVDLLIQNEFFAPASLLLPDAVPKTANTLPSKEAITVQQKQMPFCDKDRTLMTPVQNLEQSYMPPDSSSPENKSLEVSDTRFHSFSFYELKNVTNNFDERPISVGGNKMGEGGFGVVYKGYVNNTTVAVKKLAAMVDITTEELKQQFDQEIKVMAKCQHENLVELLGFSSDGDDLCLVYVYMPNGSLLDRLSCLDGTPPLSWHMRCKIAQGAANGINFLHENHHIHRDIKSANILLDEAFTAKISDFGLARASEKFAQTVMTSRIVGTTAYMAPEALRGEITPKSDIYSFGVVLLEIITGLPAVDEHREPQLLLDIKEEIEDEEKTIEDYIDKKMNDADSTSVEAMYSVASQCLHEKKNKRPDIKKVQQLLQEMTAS
smiles,measurement,setting,value
"c1cc(-c2ccc3[nH]ncc3c2)ccn1 [TG693, 5-(4-pyridinyl)-1H-indazole]",%Inhibition,[1],92.6%
same,Ki,[2],105 nM
same,inhibition at 1 µM,[3],0.4%
same,inhibition at 1 µM,[4],-2.6%
same,inhibition at 1 µM,[5],12.6%
same,inhibition at 1 µM,[6],6.6%
same,inhibition at 1 µM,[7],7.6%
same,inhibition at 1 µM,[8],-8.4%
same,inhibition at 1 µM,[9],-0.2%
same,inhibition at 1 µM,[10],1.1%
same,inhibition at 1 µM,[11],11.9%
same,inhibition at 1 µM,[12],3.4%
same,inhibition at 1 µM,[13],-6.9%
same,inhibition at 1 µM,[14],4.1%
same,inhibition at 1 µM,[15],0.6%
same,inhibition at 1 µM,[16],-0.1%
same,inhibition at 1 µM,[17],-4.9%
same,inhibition at 1 µM,[18],-9.5%
same,inhibition at 1 µM,[19],0.3%
same,inhibition at 1 µM,[20],9.7%
same,inhibition at 1 µM,[21],-1.7%
same,inhibition at 1 µM,[22],-1.1%
same,inhibition at 1 µM,[23],-1.1%
same,inhibition at 1 µM,[24],5.4%
same,inhibition at 1 µM,[25],-9.6%
same,inhibition at 1 µM,[26],11.5%
same,inhibition at 1 µM,[27],-60.9%
same,inhibition at 1 µM,[28],8.4%
same,inhibition at 1 µM,[29],-18%
same,inhibition at 1 µM,[30],5.2%
